From EPA's ToxValDB 9.5
Values joined by “and” are separate entries in the source; they are usually repeats but may differ in a detail not shown here. Equal entries are not always repeated.

Legend:
Rattus norvegicus [1] = details: oral
Oryctolagus sp. = details: for LD50: acute
Mus musculus = details: for LC50: inhalation
Rattus norvegicus [2] = details: for LC50 / LD50: acute
Canidae = details: chronic, oral, diet, Dog Other
[3] = short-term, duration: 28 days, gavage, M, Sprague-Dawley, Deaths + Clinical Observation: Locomotor activity decrease, SalivationDiarrhea or loose stool Staining around nose and mouth + Functional …
[4] = short-term, duration: 13 days, oral, diet, B6C3F1
[5] = subchronic, duration: 13 weeks, oral, diet, B6C3F1
[6] = subchronic, duration: 13 weeks, oral, diet, Fischer 344
[7] = duration: 1 years, F, liver effects
[8] = duration: 1 years, M, liver effects
[9] = duration: 1 years, M/F, Blood loss into the gastrointestinal tract + coagulation defect in male and female dogs
[10] = duration: 1 years, M/F, increased wbc, decreased rbc (females), increased alkaline phosphatase (males)
[11] = duration: 6 months, M/F, hematological effects
[12] = reproduction developmental, duration: 13 days, oral, F, Japanese White
[13] = developmental, duration: 6 days, oral, ICR
[14] = reproduction developmental, duration: 6 days, oral, F, ICR
[15] = short-term, duration: 13 days, oral, gavage, B6C3F1
[16] = short-term, duration: 16 days, oral, gavage, B6C3F1
[17] = subchronic, duration: 13 weeks, oral, gavage, B6C3F1
[18] = chronic, duration: 103 weeks, oral, gavage, F, Fischer 344
[19] = developmental, duration: 7 days, oral, Wistar
[20] = short-term, duration: 13 days, oral, gavage, Fischer 344
[21] = short-term, duration: 13 days, oral, gavage, M, Fischer 344
[22] = short-term, duration: 16 days, oral, gavage, Fischer 344
[23] = subchronic, duration: 30 days, oral, M, Sprague-Dawley
[24] = subchronic, duration: 30 days, oral, Sprague-Dawley

In the case of CC(C)(C)C(=O)O [2,2-Dimethylpropanoic acid], the NOAEL (Rattus norvegicus [1]; short-term, duration: 28 days, gavage, M/F, Fischer 344, Clinical Observation: Head shaking Sneezing Dark nasal discharge + Blood Chemistry: ALP increase, T-Cho increase, T-Bil increase + Absolute …) is reported as 300 mg/kg-day, the LD50 (Oryctolagus sp.; dermal) is reported as 3160 mg/kg and the LD50 (Oryctolagus sp.; dermal, semiocclusive) is reported as 3160 mg/kg. The NOAEL (Oryctolagus sp.; repeat dose other, dermal, M) was 300 mg/kg-day, the NOAEL (Oryctolagus sp.; repeat dose other, dermal, semiocclusive) was 300 mg/kg-day and the LC50 (Mus musculus; acute, Swiss) was less than 4 µg/mL. For the same molecule, the LC50 (Rattus norvegicus [2]; inhalation, Wistar) was less than 4 µg/mL and the NOAEL (Rattus norvegicus [2]; short-term, duration: 28 days, oral, gavage, Fischer 344) was 300 mg/kg-day.

CC(C)(N)CO [2-Amino-2-methylpropan-1-ol] gave an LD50 (Oryctolagus sp.; dermal, occlusive) greater than 2000 mg/kg, an LD50 (Mus musculus; acute, oral, gavage) of 3350 mg/kg and an LOAEL (Rattus norvegicus [2]; subchronic, duration: 3 months, oral, diet, Sprague-Dawley) of 240 mg/kg-day.

In the case of Cc1cc(O)c(C(C)(C)C)cc1Sc1cc(C(C)(C)C)c(O)cc1C [4,4'-Thiobis(6-tert-butyl-m-cresol)], the NOAEL (Rattus norvegicus [1]; [3]) is reported as 60 mg/kg-day, the NOEL (Rattus norvegicus [1]; [3]) is reported as less than 60 mg/kg-day and the NOEL (Rattus norvegicus [1]; subchronic, duration: 13 weeks, diet, F, Fischer 344, Clinical Observation: Diarrhea + Body Weight Changes: decrease + Food Consumption: decrease + Hematology: Nucleated erythrocyte increase, …) is reported as less than 15 mg/kg-day. The NOEL (Rattus norvegicus [1]; subchronic, duration: 13 weeks, diet, M/F, Fischer 344, Clinical Observation: Diarrhea + Body Weight Changes: decrease + Food Consumption: decrease + Hematology: Nucleated erythrocyte increase, …) was less than 24 mg/kg-day, the LD50 (Oryctolagus sp.; dermal, New Zealand) was greater than 5010 mg/kg and the LD50 (Oryctolagus sp.; dermal, occlusive, New Zealand) was greater than 5010 mg/kg. The NOAEL (Oryctolagus sp.; reproduction developmental, duration: 13 days, oral, gavage, F, New Zealand) was 0.2 mg/kg-day, the LOAEL (Mus musculus; [4]) was 500 ppm and the NOAEL (Mus musculus; [4]) was 250 ppm. The LOAEL (Mus musculus; [5]) was 98.5 mg/kg-day, the NOAEL (Mus musculus; [5]) was 49.2 mg/kg-day and the LD50 (Rattus norvegicus [2]; oral, diet, Sprague-Dawley) was 4150 mg/kg. For the same molecule, the LD50 (Rattus norvegicus [2]; oral, gavage, Sprague-Dawley) was 4150 mg/kg, the LOAEL (Rattus norvegicus [2]; short-term, duration: 13 days, oral, diet, Fischer 344) was 250 ppm and the NOAEL (Rattus norvegicus [2]; short-term, duration: 15 days, oral, diet, Fischer 344) was 2500 ppm. It also gave an LOAEL (Rattus norvegicus [2]; [6]) of 96 mg/kg-day and an NOAEL (Rattus norvegicus [2]; [6]) of 48 mg/kg-day.

COC(=O)c1ccccc1CS(=O)(=O)NC(=O)Nc1nc(OC)cc(OC)n1 [Bensulfuron-methyl] gave an LEL (Canidae; [7]) of 223 mg/kg-day, an NOEL (Canidae; [7]) of 19.9 mg/kg-day and an LEL (Canidae; [8]) of 237 mg/kg-day. The NOEL (Canidae; [8]) was 21.4 mg/kg-day.

In the case of CC(C)N1C(=O)c2ccccc2NS1(=O)=O [Bentazone], the LOAEL (Canidae; [9]) is reported as 13.1 mg/kg-day and the NOAEL (Canidae; [9]) is reported as 3.2 mg/kg-day.

Work on CCOC(=O)c1ccccc1S(=O)(=O)NC(=O)Nc1nc(Cl)cc(OC)n1 [Chlorimuron-ethyl] yielded an LEL (Canidae; [10]) of 37.5 mg/kg-day and an NOEL (Canidae; [10]) of 6.25 mg/kg-day.

With O=C(Cl)CCl [Chloroacetyl chloride] the LD50 (Oryctolagus sp.; dermal, semiocclusive, New Zealand) was ≥ 316 mg/kg and ≤ 501 mg/kg, the LC50 (Mus musculus; acute) was 11100 mg/m3 and the LC50 (Rattus norvegicus [2]; inhalation, Fischer 344) was 3050 mg/m3. The LD50 (Rattus norvegicus [2]; oral) was ≥ 1260 mg/kg and ≤ 2500 mg/kg, the LD50 (Rattus norvegicus [2]; oral, Sprague-Dawley) was 207 mg/kg and the LOAEL (Rattus norvegicus [2]; short-term, duration: 4 weeks, inhalation, Fischer 344) was 2.31 mg/m3.

Nc1nc(N)nc(NC2CC2)n1 [Cyromazine] showed an LEL (Canidae; [11]) of 7.5 mg/kg-day and an NOEL (Canidae; [11]) of 0.75 mg/kg-day.

For C=C(C)[C@H]1CC=C(C)CC1 [D-Limonene], the NOEL (Rattus norvegicus [1]; subchronic, duration: 13 weeks, gavage, M/F, Fischer 344, Deaths + Clinical Observation: Rough hair coats Excessive lacrimation + Body Weight Changes: decrease + Histopathology: Kidney-Nephropathy) was less than 150 mg/kg-day, the LOAEL (Oryctolagus sp.; [12]) was 500 mg/kg-day and the NOAEL (Oryctolagus sp.; [12]) was 250 mg/kg-day. The NOAEL (Oryctolagus sp.; reproduction developmental, duration: 13 days, oral, Japanese White, generation: F1) was greater than 1000 mg/kg-day, the NOAEL (Mus musculus; chronic, duration: 103 weeks, oral, gavage, B6C3F1) was 500 mg/kg-day and the LOAEL (Mus musculus; chronic, duration: 103 weeks, oral, gavage, F, B6C3F1) was 1000 mg/kg-day. The LOAEL (Mus musculus; [13]) was 2360 mg/kg-day, the NOAEL (Mus musculus; [13]) was 591 mg/kg-day and the LOAEL (Mus musculus; [14]) was 2360 mg/kg-day. The NOAEL (Mus musculus; [14]) was 591 mg/kg-day, the LOAEL (Mus musculus; [15]) was 1000 mg/kg-day and the NOAEL (Mus musculus; [15]) was 500 mg/kg-day. The LOAEC (Mus musculus; [16]) was 3300 mg/kg-day, the LOAEL (Mus musculus; [16]) was 3300 mg/kg-day and the NOAEL (Mus musculus; [16]) was 1650 mg/kg-day. For the same molecule, the LOAEL (Mus musculus; [17]) was 1000 mg/kg-day, the NOAEL (Mus musculus; [17]) was 500 mg/kg-day and the LOAEL (Rattus norvegicus [2]; [18]) was 600 mg/kg-day. It also gave an NOAEL (Rattus norvegicus [2]; [18]) of 300 mg/kg-day, an LOAEL (Rattus norvegicus [2]; chronic, duration: 103 weeks, oral, gavage, M, Fischer 344) of 75 mg/kg-day and an LOAEL (Rattus norvegicus [2]; [19]) of 2870 mg/kg-day. For the same molecule, the NOAEL (Rattus norvegicus [2]; [19]) was 591 mg/kg-day, the NOAEL (Rattus norvegicus [2]; reproduction developmental, duration: 7 days, oral, F, Wistar) was 591 mg/kg-day and the LOAEL (Rattus norvegicus [2]; [20]) was 600 mg/kg-day. The NOAEL (Rattus norvegicus [2]; [20]) was 300 mg/kg-day, the LOAEL (Rattus norvegicus [2]; [21]) was 30 mg/kg-day and the NOAEL (Rattus norvegicus [2]; [21]) was 5 mg/kg-day. For the same molecule, the LOAEC (Rattus norvegicus [2]; [22]) was 1650 mg/kg-day, the LOAEL (Rattus norvegicus [2]; [22]) was 3300 mg/kg-day and the NOAEL (Rattus norvegicus [2]; [22]) was 1650 mg/kg-day. The LOAEL (Rattus norvegicus [2]; [23]) was 2770 mg/kg-day, the NOAEL (Rattus norvegicus [2]; [23]) was 1380 mg/kg-day and the LOAEL (Rattus norvegicus [2]; [24]) was 2770 mg/kg-day. The NOAEL (Rattus norvegicus [2]; [24]) was 1380 mg/kg-day.
